# System: subjects with advanced hematologic malignancies (R/R AML or MDS)
# Test: ascending multiple dose escalation clinical trial (safety and tolerability, oral administration)
# Type: in vivo, human
# Conditions: ongoing study
# Experimental: An ascending multiple dose escalation clinical trial of the compound shown below is conducted. It is primarily intended to evaluate the safety and tolerability of the compound shown below when administered orally to subjects with advanced hematologic malignancies, specifically relapsed or refractory acute myeloid leukemia (R/R AML) or myelodysplastic syndrome (MDS).
# In this ongoing study, clinically significant signs and symptoms associated with blood cell differentiation have been reported for one of 21 subjects with acute myeloid leukemia treated with the compound shown above. This occurred approximately 7-14 days into the treatment with the compound shown above.
smiles,measurement,setting,value
COC[C@H](NC(=O)c1ccn(S(C)(=O)=O)c1)C(=O)Nc1nc(-c2cccc(N3C[C@@H](C)O[C@@H](C)C3)n2)cs1,subjects with clinically significant signs and symptoms associated with blood cell differentiation,subjects with acute myeloid leukemia treated orally with the compound,one of 21
same,"time of occurrence of the clinically significant signs and symptoms associated with blood cell differentiation, into the treatment",the one affected subject with acute myeloid leukemia,7 to 14 days

# Reference: patent publication US20250241931A1, “METHODS OF TREATING A SUBJECT HAVING CLINICALLY SIGNIFICANT SIGNS AND SYMPTOMS ASSOCIATED WITH BLOOD CELL DIFFERENTIATION” (FOGHORN THERAPEUTICS INC., priority 2022, published 2025)
